Measurements from patent US20240110130A1, “COMPOSITION” (Conopco, Inc., d/b/a UNILEVER, priority 2021, published 2024).

Assay: Colour measurement (yellowing) of liquid laundry compositions comprising DHA
Type: physicochemical
Details: added to laundry liquid comprising DHA salt

## O=S([O-])[O-].[K+].[K+] [sulphite, Potassium Sulfite]
  effect on yellowing: reduces yellowing
